Reference: EP4786487A1, “PEPTIDE” (Peptidream Inc, priority 2023, dated 2025)
Read-outs that look alike come from different tables or passages of the source. Starred links: 1 amine or outer side, 2 acyl side, 3 side chain; linkers in the order of their positions; H or OH if unused. Positions of bridges follow the written chain, without caps; N, C: chain ends. Non-standard residues stand in square brackets, D forms with d. Residues, ends and D or L forms follow the SMILES beside them. *: point of attachment. Phe(3-OCH2COOH) = N[C@@H](Cc1cccc(OCC(=O)O)c1)C(=O)O; X11 = O=C([C@H](Cc1ccc(-c2ccccc2Cl)cc1)N[*:1])[*:2]; Trp(6-OH) = N[C@@H](Cc1c[nH]c2cc(O)ccc12)C(=O)O; Phe(4-COOH) = N[C@@H](Cc1ccc(C(=O)O)cc1)C(=O)O; Trp(7-aza) = N[C@@H](Cc1c[nH]c2ncccc12)C(=O)O; Piperazinyl(4-CH2COOH) = O=C(O)CN1CCN(*)CC1; Gly(N(CH2)3COOH) = O=C(O)CCCNCC(=O)O; X1 = CCCCCCC[C@H](N[*:1])C(=O)[*:2]; NMeF = CN[C@@H](Cc1ccccc1)C(=O)O; 3Pal = N[C@@H](Cc1cccnc1)C(=O)O; NMeE = CN[C@@H](CCC(=O)O)C(=O)O; Gly(N(CH2)3NH2) = NCCCNCC(=O)O; Ahp(2) = CCCCC[C@H](N)C(=O)O; NMeC = CN[C@@H](CS)C(=O)O; NMeA = CN[C@@H](C)C(=O)O; Sar = CNCC(=O)O

Assays:
Myostatin = target: T1, Myostatin (Homo sapiens, UniProt O14793); assay: HepG2 reporter gene assay, Evaluation Procedure (2): 2-concentrations assay, myostatin inhibition; assay type: cell-based; details: HepG2
T1 construct: active myostatin (also called mature myostatin) is a homodimer consisting of two C-terminal growth factor domains; purchased R&D systems 788-G8/CF
T1 sequence (O14793 267-375): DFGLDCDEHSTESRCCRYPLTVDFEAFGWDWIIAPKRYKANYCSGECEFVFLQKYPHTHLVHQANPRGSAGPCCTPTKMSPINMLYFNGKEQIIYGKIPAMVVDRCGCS
Method: (§1) The pGL3(CAGA)12-luc plasmid, namely a pGL3 vector (E1751, Promega) having a luciferase gene inserted downstream of a promoter sequence with 12 CAGA repeats attached, was transfected into HepG2 cell line (HB-8065, ATCC). The culture of HepG2 cell line (HB-8065, ATCC) was performed as in the Evaluation Procedure (1).
(§2) Myostatin (788-G8/CF, R&D systems) or GDF-11 (1958-GD-G8/CF, R&D systems) was added at a final concentration of 10 ng/mL. […] At this time, blank wells, in which neither myostatin, GDF-11, nor each peptide was added, were also prepared and incubated in a CO2 incubator (37°C, 5% CO2) for 20 to 24 hours.
(§3) The medium containing the cells was removed, and a mixture containing PBS (14190144, Thermo) and a chromogenic substrate One-Glo Luciferase Assay System (E6120, Promega) at a ratio of 1:1 was added to each well at 100 µL/well. This was stirred with a plate shaker for 5 min and transferred to a 384-well plate (3570, Corning) at a volume of 20 µL/well.
(§4) The plate was centrifuged at 1,000 × g for 1 min and the luminescence signal (700 nm luminescence) was measured using a plate reader (Envision 2104, PerkinElmer). Based on the measurement results, the inhibition rate at each peptide concentration was calculated. […]

GDF-11 = target: T2, GDF-11 (Homo sapiens, UniProt O95390); assay: HepG2 reporter gene assay, Evaluation Procedure (2): 2-concentrations assay, GDF-11 inhibition; assay type: cell-based; details: for inhibition at 0.03 µM: HepG2, peptide 30nM, read-out: GDF11 Inhibition 30nM; for inhibition at 0.03 µM / inhibition at 0.1 µM: GDF-11 10 ng/mL; for inhibition at 0.1 µM: HepG2, peptide 100nM, read-out: GDF11 Inhibition 100nM; for inhibition: read-out: inhibition rate (GDF-11 inhibition assay)
T2 construct: purchased R&D systems 1958-GD-G8/CF
T2 sequence (O95390 299-407): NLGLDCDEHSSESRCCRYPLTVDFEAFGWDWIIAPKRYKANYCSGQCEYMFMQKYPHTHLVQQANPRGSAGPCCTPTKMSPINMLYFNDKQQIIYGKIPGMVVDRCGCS
Method: as §1, §2, §3, §4

[1] = peptide 30nM, Myostatin 10 ng/mL, read-out: Myostatin Inhibition 30nM
[2] = peptide 100nM, Myostatin 10 ng/mL, read-out: Myostatin Inhibition 100nM

inhibition at 0.03 µM (Myostatin; [1]) | inhibition at 0.1 µM (Myostatin; [2]) | inhibition at 0.03 µM (GDF-11) | inhibition at 0.1 µM (GDF-11) | inhibition at 0.1 µM (Myostatin; Table 7-3/7-4, myostatin 10 ng/mL, peptide at the higher of the 2 concentrations, read-out: inhibition rate (myostatin inhibition assay)) | inhibition at 0.03 µM (Myostatin; Table 7-3/7-4, myostatin 10 ng/mL, peptide at the lower of the 2 concentrations, read-out: inhibition rate (myostatin inhibition assay)) | inhibition (GDF-11; HepG2, first GDF-11 column of Table 7-3/7-4, GDF-11 10 ng/mL, peptide at the lower of the 2 concentrations) | inhibition (GDF-11; HepG2, second GDF-11 column of Table 7-3/7-4, GDF-11 10 ng/mL, peptide at the higher of the 2 concentrations) | SMILES
45% | 72% | 0% | 0% | – | – | – | – | CC[C@H](C)[C@@H]1NC(=O)[C@H](Cc2ccccc2)N(C)C(=O)[C@H](Cc2ccc(O)cc2)NC(=O)[C@H](Cc2c[nH]c3ncccc23)NC(=O)[C@H](C)NC(=O)CN(CCCC(=O)O)C(=O)CSC[C@H](C(N)=O)NC(=O)[C@H](Cc2ccccc2)N(C)C(=O)[C@H](C)N(C)C(=O)[C@H](CC(C)C)NC(=O)[C@H](Cc2ccccc2)N(C)C(=O)[C@H](CCCNC(=N)N)NC(=O)[C@H](Cc2cccnc2)NC(=O)[C@H](Cc2ccccc2)NC(=O)CN(C)C1=O [Myostatin_99_Variant_22] ({CH2CO}-[Gly(N(CH2)3COOH)]A[Trp(7-aza)]Y[NMeF]I[Sar]F[3Pal]R[NMeF]L[NMeA][NMeF][dC]-NH2; thioether N-15)
37% | 69% | 6% | 1% | – | – | – | – | CCCCC[C@@H]1NC(=O)[C@H](Cc2ccccc2)N(C)C(=O)[C@H](CCCNC(=N)N)NC(=O)[C@H](Cc2cccnc2)NC(=O)[C@H](Cc2cccc(OCC(=O)O)c2)NC(=O)CN(C)C(=O)[C@H]([C@@H](C)CC)NC(=O)[C@H](Cc2ccccc2)N(C)C(=O)[C@H](Cc2ccc(O)cc2)NC(=O)[C@H](Cc2c[nH]c3ccccc23)NC(=O)[C@H](C)NC(=O)[C@H](C)NC(=O)CSC[C@H](C(=O)O)NC(=O)[C@H](Cc2ccccc2)N(C)C(=O)[C@H](C)N(C)C1=O [Myostatin_99_v205] ({CH2CO}-AAWY[NMeF]I[Sar][Phe(3-OCH2COOH)][3Pal]R[NMeF][Ahp(2)][NMeA][NMeF][dC]-OH; thioether N-15)

More lines, now with the values behind:

SMILES | inhibition at 0.03 µM (Myostatin; [1]) | inhibition at 0.1 µM (Myostatin; [2]) | inhibition at 0.03 µM (GDF-11) | inhibition at 0.1 µM (GDF-11) | inhibition at 0.1 µM (Myostatin; Table 7-3/7-4, myostatin 10 ng/mL, peptide at the higher of the 2 concentrations, read-out: inhibition rate (myostatin inhibition assay)) | inhibition at 0.03 µM (Myostatin; Table 7-3/7-4, myostatin 10 ng/mL, peptide at the lower of the 2 concentrations, read-out: inhibition rate (myostatin inhibition assay)) | inhibition (GDF-11; HepG2, first GDF-11 column of Table 7-3/7-4, GDF-11 10 ng/mL, peptide at the lower of the 2 concentrations) | inhibition (GDF-11; HepG2, second GDF-11 column of Table 7-3/7-4, GDF-11 10 ng/mL, peptide at the higher of the 2 concentrations)
CC[C@H](C)[C@@H]1NC(=O)[C@H](Cc2ccccc2)N(C)C(=O)[C@H](Cc2ccc(O)cc2)NC(=O)[C@H](Cc2c[nH]c3ccccc23)NC(=O)[C@H](CCCNC(=N)N)NC(=O)[C@H](C)NC(=O)CSC[C@@H](C(N)=O)N(C)C(=O)[C@H](Cc2ccccc2)N(C)C(=O)[C@H](C)N(C)C(=O)[C@H](CC(C)C)NC(=O)[C@H](Cc2ccccc2)N(C)C(=O)[C@H](CCCNC(=N)N)NC(=O)[C@H](Cc2ccc(O)cc2)NC(=O)[C@H](Cc2ccc(O)cc2)NC(=O)CN(C)C1=O [Myostatin_000099_15meC] ({CH2CO}-ARWY[NMeF]I[Sar]YYR[NMeF]L[NMeA][NMeF][NMeC]-NH2; thioether N-15) | 50% | 75% | 0% | 4% | – | – | – | –
CC[C@H](C)[C@@H]1NC(=O)[C@H](Cc2ccccc2)N(C)C(=O)[C@H](Cc2ccc(O)cc2)NC(=O)[C@H](Cc2c[nH]c3ccccc23)NC(=O)[C@H](CCCNC(=N)N)NC(=O)CN(CCCN)C(=O)CSC[C@@H](C(N)=O)NC(=O)[C@H](Cc2ccccc2)N(C)C(=O)[C@H](C)N(C)C(=O)[C@H](CC(C)C)NC(=O)[C@H](Cc2ccccc2)N(C)C(=O)[C@H](CCCNC(=N)N)NC(=O)[C@H](Cc2ccc(O)cc2)NC(=O)[C@H](Cc2ccc(O)cc2)NC(=O)CN(C)C1=O [Myostatin_000099_01ApG] ({CH2CO}-[Gly(N(CH2)3NH2)]RWY[NMeF]I[Sar]YYR[NMeF]L[NMeA][NMeF]C-NH2; thioether N-15) | 19% | 65% | 0% | 0% | – | – | – | –
CCCCCCC[C@@H]1NC(=O)[C@H](Cc2ccccc2)N(C)C(=O)[C@H](CCCNC(=N)N)NC(=O)[C@H](Cc2ccc(C(=O)O)cc2)NC(=O)[C@H](Cc2ccc(-c3ccccc3Cl)cc2)NC(=O)CN(C)C(=O)[C@H]([C@@H](C)CC)NC(=O)[C@H](Cc2ccccc2)N(C)C(=O)[C@H](Cc2ccc(O)cc2)NC(=O)[C@H](Cc2c[nH]c3cc(O)ccc23)NC(=O)[C@H](C)NC(=O)[C@H](C)NC(=O)CSC[C@H](C(=O)N2CCN(CC(=O)O)CC2)NC(=O)[C@H](Cc2ccccc2)N(C)C(=O)[C@H](CCC(=O)O)N(C)C1=O [Myostatin_99_v325] ({CH2CO}-AA[Trp(6-OH)]Y[NMeF]I[Sar][X11][Phe(4-COOH)]R[NMeF][X1][NMeE][NMeF][dC]-{Piperazinyl(4-CH2COOH)}; thioether N-15) | – | – | – | – | 100% | 100% | 49% | 86%
